Measurements as given in ChEMBL document CHEMBL1201862, “PubChem BioAssay data set” (2004).
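All cell lines were grown in 96-well plates and treated with compound for 48 hours. GI50: concentration for 50% inhibition of growth.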 Activity calls are given as the source filed them. Rule as the data show it: active = GI50 up to about 1.1 µM and inactive = higher.

Key:
Experiment in all cases: DTP human tumour cell line panel, 48 h
M14 = system: M14
SNB-75 = system: SNB-75
U-251 = system: U-251
KM12 = system: KM12
EKVX = system: EKVX
HOP-62 = system: HOP-62
MOLT-4 = system: MOLT-4
HOP-18 = system: HOP-18
IGROV-1 = system: IGROV-1
SR = system: SR
A498 = system: A498
CCRF-CEM = system: CCRF-CEM
RXF 393 = system: RXF 393
NCI-H460 = system: NCI-H460
SF-539 = system: SF-539
A549 = system: A549
SW-620 = system: SW-620
XF498 = system: XF498
LXFL 529 = system: LXFL 529
UACC-62 = system: UACC-62
SK-MEL-28 = system: SK-MEL-28
HCT-15 = system: HCT-15
K562 = system: K562
SNB-78 = system: SNB-78
HL-60 = system: HL-60
TK-10 = system: TK-10
786-0 = system: 786-0
NCI-H522 = system: NCI-H522
NCI-H226 = system: NCI-H226
OVCAR-3 = system: OVCAR-3
LOX IMVI = system: LOX IMVI
UACC-257 = system: UACC-257
RPMI-8226 = system: RPMI-8226
Malme-3M = system: Malme-3M
DLD-1 = system: DLD-1
OVCAR-8 = system: OVCAR-8
DMS-273 = system: DMS-273
SF-295 = system: SF-295
SK-MEL-2 = system: SK-MEL-2
SK-OV-3 = system: SK-OV-3
KM-20L2 = system: KM-20L2
HCT-116 = system: HCT-116
UO-31 = system: UO-31
HOP-92 = system: HOP-92
SN12C = system: SN12C
COLO 205 = system: COLO 205
ACHN = system: ACHN
DMS-114 = system: DMS-114
SNB-19 = system: SNB-19
M19-MEL = system: M19-MEL
HT-29 = system: HT-29
SF-268 = system: SF-268
OVCAR-4 = system: OVCAR-4
HCC 2998 = system: HCC 2998
NCI-H23 = system: NCI-H23

**Q.** How did the GI50 (M14) turn out when `Cc1c(-c2nnc(-c3ccc(Cl)cc3)o2)c(=O)n(-c2ccccc2)n1C` was run?
**A.** > 100 µM (inactive)

**Q.** What about the GI50 (SNB-75) of the same compound?
**A.** > 100 µM (inactive)

**Q.** And the GI50 (U-251)?
**A.** > 100 µM (inactive)

**Q.** What about the GI50 (KM12) of the same compound?
**A.** > 100 µM (inactive)

**Q.** And the GI50 (EKVX)?
**A.** > 100 µM (inactive)

**Q.** What about the GI50 (HOP-62) of the same compound?
**A.** > 100 µM (inactive)

**Q.** And the GI50 (MOLT-4)?
**A.** > 100 µM (inactive)

**Q.** And the GI50 (HOP-18)?
**A.** > 100 µM (inactive)

**Q.** What about the GI50 (IGROV-1) of the same compound?
**A.** > 100 µM (inactive)

**Q.** What about the GI50 (SR) of the same compound?
**A.** > 100 µM (inactive)

**Q.** What about the GI50 (A498) of the same compound?
**A.** > 100 µM (inactive)

**Q.** And the GI50 (CCRF-CEM)?
**A.** > 100 µM (inactive)

**Q.** And the GI50 (RXF 393)?
**A.** > 100 µM (inactive)

**Q.** What about the GI50 (NCI-H460) of the same compound?
**A.** > 100 µM (inactive)

**Q.** And the GI50 (SF-539)?
**A.** 3.33 µM (inactive)

**Q.** And the GI50 (A549)?
**A.** > 100 µM (inactive)

**Q.** What about the GI50 (SW-620) of the same compound?
**A.** > 100 µM (inactive)

**Q.** What about the GI50 (XF498) of the same compound?
**A.** > 100 µM (inactive)

**Q.** What about the GI50 (LXFL 529) of the same compound?
**A.** > 100 µM (inactive)

**Q.** What about the GI50 (UACC-62) of the same compound?
**A.** > 100 µM (inactive)

**Q.** And the GI50 (SK-MEL-28)?
**A.** > 100 µM (inactive)

**Q.** And the GI50 (HCT-15)?
**A.** > 100 µM

**Q.** And the GI50 (K562)?
**A.** > 100 µM (inactive)

**Q.** And the GI50 (SNB-78)?
**A.** > 100 µM (inactive)

**Q.** What about the GI50 (HL-60) of the same compound?
**A.** > 100 µM (inactive)

**Q.** What about the GI50 (TK-10) of the same compound?
**A.** > 100 µM (inactive)

**Q.** And the GI50 (786-0)?
**A.** > 100 µM (inactive)

**Q.** And the GI50 (NCI-H522)?
**A.** > 100 µM (inactive)

**Q.** What about the GI50 (NCI-H226) of the same compound?
**A.** > 100 µM (inactive)

**Q.** What about the GI50 (OVCAR-3) of the same compound?
**A.** > 100 µM (inactive)

**Q.** What about the GI50 (LOX IMVI) of the same compound?
**A.** > 100 µM (inactive)

**Q.** What about the GI50 (UACC-257) of the same compound?
**A.** > 100 µM (inactive)

**Q.** What about the GI50 (RPMI-8226) of the same compound?
**A.** > 100 µM (inactive)

**Q.** What about the GI50 (Malme-3M) of the same compound?
**A.** > 100 µM (inactive)

**Q.** And the GI50 (DLD-1)?
**A.** > 100 µM (inactive)

**Q.** What about the GI50 (OVCAR-8) of the same compound?
**A.** > 100 µM (inactive)

**Q.** What about the GI50 (DMS-273) of the same compound?
**A.** > 100 µM (inactive)

**Q.** And the GI50 (SF-295)?
**A.** > 100 µM (inactive)

**Q.** What about the GI50 (SK-MEL-2) of the same compound?
**A.** > 100 µM (inactive)

**Q.** What about the GI50 (SK-OV-3) of the same compound?
**A.** > 100 µM (inactive)

**Q.** What about the GI50 (KM-20L2) of the same compound?
**A.** > 100 µM (inactive)

**Q.** And the GI50 (HCT-116)?
**A.** > 100 µM (inactive)

**Q.** And the GI50 (UO-31)?
**A.** > 100 µM (inactive)

**Q.** What about the GI50 (HOP-92) of the same compound?
**A.** > 100 µM (inactive)

**Q.** And the GI50 (SN12C)?
**A.** > 100 µM (inactive)

**Q.** And the GI50 (COLO 205)?
**A.** > 100 µM (inactive)

**Q.** What about the GI50 (ACHN) of the same compound?
**A.** > 100 µM (inactive)

**Q.** What about the GI50 (DMS-114) of the same compound?
**A.** > 100 µM (inactive)

**Q.** What about the GI50 (SNB-19) of the same compound?
**A.** > 100 µM (inactive)

**Q.** What about the GI50 (M19-MEL) of the same compound?
**A.** > 100 µM (inactive)

**Q.** And the GI50 (HT-29)?
**A.** > 100 µM (inactive)

**Q.** What about the GI50 (SF-268) of the same compound?
**A.** > 100 µM (inactive)

**Q.** And the GI50 (OVCAR-4)?
**A.** > 100 µM (inactive)

**Q.** And the GI50 (HCC 2998)?
**A.** > 100 µM (inactive)

**Q.** What about the GI50 (NCI-H23) of the same compound?
**A.** > 100 µM (inactive)
